Results taken from ChEMBL document CHEMBL5331058, “Review of bioactivity and structure-activity relationship on baicalein (5,6,7-trihydroxyflavone) and wogonin (5,7-dihydroxy-8-methoxyflavone) derivatives: Structural modifications inspired from flavonoids in Scutellaria baicalensis” (Eur J Med Chem, 2022).
≈ marks a conversion by molar mass, not a printed value.

Columns and labels:
[1] = tested on: Escherichia coli; assay: Antibacterial activity against Escherichia coli assessed as bacterial growth inhibition; assay type: functional
[2] = tested on: Staphylococcus aureus; assay: Antibacterial activity against Staphylococcus aureus assessed as bacterial growth inhibition incubated for 16 hrs; assay type: functional
[3] = tested on: Candida albicans; assay: Antifungal activity against Candida albicans assessed as reduction in fungal growth incubated for 16 hrs by microdilution method; assay type: functional
[4] = target: T1, Acetylcholinesterase (Homo sapiens, UniProt P22303); assay: Inhibition of AChE (unknown origin)
T1 sequence (P22303 whole entry): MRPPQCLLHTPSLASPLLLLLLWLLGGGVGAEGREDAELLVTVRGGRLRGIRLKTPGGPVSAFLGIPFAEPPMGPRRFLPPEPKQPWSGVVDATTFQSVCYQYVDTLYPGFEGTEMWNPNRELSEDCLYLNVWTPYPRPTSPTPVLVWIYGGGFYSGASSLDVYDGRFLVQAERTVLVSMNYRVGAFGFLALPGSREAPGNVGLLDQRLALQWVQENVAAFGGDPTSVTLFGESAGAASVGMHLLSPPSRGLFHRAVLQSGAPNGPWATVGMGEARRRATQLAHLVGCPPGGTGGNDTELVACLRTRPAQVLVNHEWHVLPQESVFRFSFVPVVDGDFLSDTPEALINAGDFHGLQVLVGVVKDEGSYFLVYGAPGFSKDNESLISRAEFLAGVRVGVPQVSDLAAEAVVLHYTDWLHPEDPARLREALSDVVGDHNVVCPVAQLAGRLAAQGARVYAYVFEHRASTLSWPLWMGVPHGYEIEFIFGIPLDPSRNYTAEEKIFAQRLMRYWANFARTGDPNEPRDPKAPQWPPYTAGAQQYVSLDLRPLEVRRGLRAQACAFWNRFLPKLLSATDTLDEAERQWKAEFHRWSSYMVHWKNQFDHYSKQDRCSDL

[5] = target: Amyloid-beta precursor protein (Homo sapiens) (UniProt P05067); assay: Disaggregation of Cu2+ induced amyloid beta (unknown origin) fibrils relative to control
Sequence of Amyloid-beta precursor protein (Homo sapiens) (P05067 whole entry): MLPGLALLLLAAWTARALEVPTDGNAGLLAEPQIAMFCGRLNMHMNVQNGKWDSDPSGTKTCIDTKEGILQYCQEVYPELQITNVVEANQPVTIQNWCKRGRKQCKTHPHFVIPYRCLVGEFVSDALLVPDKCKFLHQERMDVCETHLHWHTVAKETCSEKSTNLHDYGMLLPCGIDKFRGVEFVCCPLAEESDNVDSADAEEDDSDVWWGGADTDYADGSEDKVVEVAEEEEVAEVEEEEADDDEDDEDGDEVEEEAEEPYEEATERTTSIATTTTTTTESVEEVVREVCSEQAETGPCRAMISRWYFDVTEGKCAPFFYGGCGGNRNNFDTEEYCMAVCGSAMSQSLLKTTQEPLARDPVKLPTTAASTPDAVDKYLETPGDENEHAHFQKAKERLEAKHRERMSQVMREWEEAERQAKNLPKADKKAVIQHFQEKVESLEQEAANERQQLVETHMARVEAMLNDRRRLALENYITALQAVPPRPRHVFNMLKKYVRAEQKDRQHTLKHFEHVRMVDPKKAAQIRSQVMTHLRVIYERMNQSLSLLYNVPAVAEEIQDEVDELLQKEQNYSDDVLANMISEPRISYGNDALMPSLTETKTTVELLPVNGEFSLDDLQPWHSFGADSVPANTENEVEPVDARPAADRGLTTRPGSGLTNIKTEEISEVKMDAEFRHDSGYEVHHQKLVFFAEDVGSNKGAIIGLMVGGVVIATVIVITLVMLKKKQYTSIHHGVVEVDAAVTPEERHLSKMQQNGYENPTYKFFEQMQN

[6] = target: Acetylcholinesterase (Electrophorus electricus, UniProt O42275); assay: Inhibition of electric eel AChE
Sequence of Acetylcholinesterase (Electrophorus electricus, UniProt O42275) (O42275 whole entry): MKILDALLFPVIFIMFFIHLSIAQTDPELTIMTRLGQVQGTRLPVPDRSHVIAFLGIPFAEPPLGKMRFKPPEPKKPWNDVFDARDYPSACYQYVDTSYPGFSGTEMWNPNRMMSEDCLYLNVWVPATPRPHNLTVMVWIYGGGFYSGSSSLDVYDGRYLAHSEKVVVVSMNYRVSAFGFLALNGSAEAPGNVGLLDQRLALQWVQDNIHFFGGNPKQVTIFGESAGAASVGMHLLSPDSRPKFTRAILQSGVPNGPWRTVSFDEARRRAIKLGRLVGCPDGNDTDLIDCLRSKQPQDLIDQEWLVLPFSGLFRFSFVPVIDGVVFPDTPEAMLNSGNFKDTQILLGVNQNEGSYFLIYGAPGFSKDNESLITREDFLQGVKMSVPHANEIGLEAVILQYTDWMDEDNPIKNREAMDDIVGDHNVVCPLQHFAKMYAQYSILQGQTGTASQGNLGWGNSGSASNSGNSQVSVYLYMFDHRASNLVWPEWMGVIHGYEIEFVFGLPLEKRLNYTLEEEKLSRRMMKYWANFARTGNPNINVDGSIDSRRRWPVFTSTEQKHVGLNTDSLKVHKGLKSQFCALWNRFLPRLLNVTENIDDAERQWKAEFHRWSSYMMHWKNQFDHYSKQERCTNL

[7] = target: T1, Acetylcholinesterase; assay: Inhibition of human AChE
[8] = target: Amyloid-beta precursor protein (Homo sapiens) (UniProt P05067); assay: Inhibition of Cu2+ induced amyloid beta (unknown origin) aggregation relative to control; details: concentration not given here
[9] = target: Amyloid-beta precursor protein (Homo sapiens) (UniProt P05067); assay: Disaggregation of self-induced amyloid beta (unknown origin) fibrils relative to control
[10] = target: Amyloid-beta precursor protein (Homo sapiens) (UniProt P05067); assay: Inhibition of self-induced amyloid beta (unknown origin) aggregation relative to control; details: concentration not given here
[11] = target: T2, Alpha glucosidase (Homo sapiens, UniProt O43451+P10253+P14410+Q2M2H8); assay: Inhibition of alpha glucosidase (unknown origin) spectrophotometric analysis; assay type: protein assay
[12] = Aqueous solubility of compound by UV spectroscopy method; assay type: physicochemical; details: water
[13] = tested on: PC-12; assay: Cytotoxicity against H2O2-induced cell damage in rat PC12 cells assessed as reduction in cell viability at 50 uM incubated for 24 hrs by MTT assay relative to control; assay type: functional
[14] = Antioxidant activity assessed as DPPH radical scavenging activity; assay type: functional
[15] = Permeability of the compound across blood brain barrier at pH 7.4 incubated for 4 hrs by parallel artificial membrane permeation assay; assay type: ADME; details: pampa, pH 7.4, 4 h
[16] = tested on: SH-SY5Y; assay: Neuroprotective activity against H2O2-induced cell damage in human SH-SY5Y cells assessed as reduction in cell viability preincubated for 36 hrs followed by H2O2 addition and measured after 12 hrs by MTT assay; assay type: functional, cell-based
[17] = tested on: SH-SY5Y; assay: Neuroprotective activity against H2O2-induced cell damage in human SH-SY5Y cells assessed as cell viability preincubated for 36 hrs followed by H2O2 addition and measured after 12 hrs by MTT assay; assay type: functional, cell-based
[18] = target: Thymic stromal lymphopoietin (Homo sapiens) (UniProt Q969D9); assay: Inhibition of N-terminal FLAG tagged/C-terminal 6 His tagged human TSLP at 1 uM preincubated for 2 hrs followed by compound addition and measured after 18 hrs by ELISA method relative to control; details: time 20.0 hrs
Sequence of Thymic stromal lymphopoietin (Homo sapiens) (Q969D9 whole entry): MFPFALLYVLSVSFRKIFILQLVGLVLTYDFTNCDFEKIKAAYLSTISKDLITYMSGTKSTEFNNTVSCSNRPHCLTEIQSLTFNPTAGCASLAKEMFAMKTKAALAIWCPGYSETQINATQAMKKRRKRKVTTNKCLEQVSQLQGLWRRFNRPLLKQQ

[19] = tested on: HepG2; assay: Antitumor activity against human HepG2 cells assessed as reduction in cell viability at 25 uM by colorimetric MTT assay relative to control; assay type: functional
[20] = tested on: DU-145; assay: Anticancer activity against human DU-145 cells assessed as inhibition of cell growth at 100 uM by colorimetric MTT assay relative to control; assay type: functional; set-up: scale not given: the % may be the effect or the level left
[21] = tested on: HGC-27; assay: Antiproliferative activity against human HGC-27 cells assessed as reduction in cell viability incubated for 48 hrs by MTT assay; assay type: functional, cell-based; details: HGC-27, 48 h
[22] = tested on: MGC-803; assay: Antiproliferative activity against human MGC-803 cells assessed as reduction in cell viability incubated for 48 hrs by MTT assay; assay type: functional, cell-based; details: MGC-803, 48 h
[23] = target: Butyrylcholinesterase (Rattus norvegicus, UniProt Q9JKC1); assay: Inhibition of rat serum homogenate BuChE preincubated for 5 mins followed by compound addition and measured after 15 mins by Ellman's method; assay type: cell-free
Sequence of Butyrylcholinesterase (Q9JKC1 whole entry): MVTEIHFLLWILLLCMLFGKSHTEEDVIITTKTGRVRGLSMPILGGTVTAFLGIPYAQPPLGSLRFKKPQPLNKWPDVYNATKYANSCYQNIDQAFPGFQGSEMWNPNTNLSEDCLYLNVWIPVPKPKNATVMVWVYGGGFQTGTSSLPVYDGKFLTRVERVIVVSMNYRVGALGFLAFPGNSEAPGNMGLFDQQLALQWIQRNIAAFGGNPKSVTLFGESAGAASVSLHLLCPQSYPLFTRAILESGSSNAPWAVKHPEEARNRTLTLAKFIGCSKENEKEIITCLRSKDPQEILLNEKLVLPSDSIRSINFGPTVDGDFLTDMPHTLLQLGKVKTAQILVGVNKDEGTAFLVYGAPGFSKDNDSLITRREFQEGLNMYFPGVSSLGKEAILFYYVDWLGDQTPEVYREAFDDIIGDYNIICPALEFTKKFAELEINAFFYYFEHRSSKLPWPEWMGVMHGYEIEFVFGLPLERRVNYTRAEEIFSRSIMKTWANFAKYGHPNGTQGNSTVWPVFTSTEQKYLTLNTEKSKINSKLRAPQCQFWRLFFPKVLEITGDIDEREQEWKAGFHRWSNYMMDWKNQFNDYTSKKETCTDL

[24] = target: T3, Acetylcholinesterase (Rattus norvegicus, UniProt P37136); assay: Inhibition of rat cortex homogenate AChE preincubated for 5 mins followed by compound addition and measured after 15 mins by Ellman's method
T3 sequence (P37136 whole entry): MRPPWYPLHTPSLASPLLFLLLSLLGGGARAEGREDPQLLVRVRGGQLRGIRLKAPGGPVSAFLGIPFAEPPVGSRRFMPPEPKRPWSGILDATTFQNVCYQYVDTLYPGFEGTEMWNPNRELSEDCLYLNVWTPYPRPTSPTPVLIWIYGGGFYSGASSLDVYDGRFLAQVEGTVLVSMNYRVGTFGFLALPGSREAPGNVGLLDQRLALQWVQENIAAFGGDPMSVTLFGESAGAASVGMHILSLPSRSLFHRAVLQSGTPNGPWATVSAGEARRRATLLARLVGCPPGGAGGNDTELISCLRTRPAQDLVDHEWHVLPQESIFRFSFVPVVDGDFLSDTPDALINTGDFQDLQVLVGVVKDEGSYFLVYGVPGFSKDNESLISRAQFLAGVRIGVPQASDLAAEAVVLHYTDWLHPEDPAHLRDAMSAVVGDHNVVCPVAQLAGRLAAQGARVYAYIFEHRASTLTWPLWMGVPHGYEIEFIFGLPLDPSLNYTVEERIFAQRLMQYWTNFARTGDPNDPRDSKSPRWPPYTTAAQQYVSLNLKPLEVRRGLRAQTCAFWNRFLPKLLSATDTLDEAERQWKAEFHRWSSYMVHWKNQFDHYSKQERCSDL

[25] = target: T2, Alpha glucosidase; assay: Inhibition of alpha glucosidase (unknown origin); assay type: protein assay
[26] = tested on: Influenza A virus; assay: Antiviral activity against influenza A virus H1N1 infected in MDCK cells assessed as reduction in virus induced cytopathic effect by CPE assay; assay type: functional, organism-based
[27] = tested on: PC-12; assay: Antioxidant activity in H2O2-induced cell damage in rat PC12 cells at 50 uM; assay type: functional
[28] = target: T1, Acetylcholinesterase; assay: Inhibition of human AChE by Ellman's spectrophotometric method

CC(C)=CCCC(C)CCOC(=O)[C@H]1O[C@@H](Oc2cc3oc(-c4ccccc4)cc(=O)c3c(O)c2O)[C@H](O)[C@@H](O)[C@@H]1O (stereo not given in full)
MIC [1]: 3200 µM (≈ 1870 µg/mL)
MIC [2]: 800 µM (≈ 468 µg/mL)
MIC [3]: 400 µM (≈ 234 µg/mL)

CCN(C)C(=O)Oc1ccc(-c2cc(=O)c3c(O)c(O)c(OC(=O)N[C@@H](Cc4ccccc4)C(=O)OC(C)(C)C)cc3o2)cc1
IC50 [4]: 4.73 µM
Activity [5]: 78.7%
IC50 [6]: 6.01 µM
IC50 [7]: 7.91 µM
inhibition [8]: 86.2%
Activity [9]: 84.2%
inhibition [10]: 89.2%

CCN(CCCCOc1ccc(-c2cc(=O)c3c(O)c(OC)c(OC)cc3o2)cc1)Cc1ccccc1OC
IC50 [11]: 25.78 µM

COc1c(O)cc2oc(-c3ccc(O)cc3)cc(=O)c2c1O [HISPIDULIN]
solubility [12]: 15.3 µg/mL (≈ 51.1 µM)
inhibition at 50 µM [13]: 94.2%
IC50 [14]: 19.3 µM

CN1C(=O)[C@@H](Cc2ccc(NC(=O)[C@H]3O[C@@H](Oc4cc5oc(-c6ccccc6)cc(=O)c5c(O)c4O)[C@H](O)[C@@H](O)[C@@H]3O)cc2)NC(=O)[C@H]1Cc1ccc2ccccc2c1
BBB [15]: 7.22%

O=C(NC(Cc1ccccc1)C(=O)Oc1c(O)cc2oc(-c3ccccc3)cc(=O)c2c1O)OCc1ccccc1 (stereo not given)
EC50 [16]: 24.8 µM
EC50 [17]: 4.31 µM

O=c1cc(-c2cccc(-c3ccc(O)cc3)c2)oc2cc(O)cc(O)c12
inhibition [18]: 77.5%

COc1cc2oc(-c3ccc(N)cc3)cc(=O)c2c(OC)c1OC
Activity [19]: <2%
Activity [20]: 60%

COC(=O)c1cc(Br)ccc1OCCCOc1ccc(-c2cc(=O)c3c(OC)c(OC)c(OC)cc3o2)cc1
IC50 [21]: 10.3 µM
IC50 [22]: 17.2 µM

CCN(CC)C(=O)Oc1ccc(-c2cc(=O)c3c(O)c(OC)c(OC)cc3o2)cc1
IC50 [23]: 22.1 µM
IC50 [24]: 1.2 µM

CC(c1cc(O)c2c(=O)cc(-c3ccccc3)oc2c1)c1ccc(O)cc1O (stereo not given)
IC50 [25]: 44.11 µM

COc1c(O)cc2oc(-c3cccc(Br)c3)cc(=O)c2c1O
EC50 [26]: 4.5 µM

COc1c(O)cc2oc(-c3ccccc3Br)cc(=O)c2c1O
EC50 [26]: 4 µM

CC(C)N(CCOc1c(O)cc2oc(-c3ccc(O)cc3)cc(=O)c2c1O)C(C)C
Activity [27]: 72.12%

COc1cc2oc(-c3ccc(NCCNc4c5c(nc6cc(Cl)ccc46)CCCC5)cc3)cc(=O)c2c(OC)c1OC
IC50 [28]: 4.73 µM

COc1c(C(C)c2ccc(O)cc2O)cc2oc(-c3ccccc3)cc(=O)c2c1O (stereo not given)
IC50 [25]: 39.21 µM
